We go through four compounds from patent US20100143270A1, “THERAPEUTIC COTININE COMPOSITIONS” (University of Louisville Research Foubdation, priority 2007, published 2010).

In one series the test system is neutrophils. The settings on record: cited from earlier work.
Series [1] concerns LPS-stimulated monocytes. The series is described as follows: IL-10 release by LPS-stimulated human monocytes (ELISA). It counts as cell-based. (In general: An ELISA detects its analyte on a solid surface through an enzyme-linked reagent.)
A further series has as its system NF-κB. Description: NF-κB-inducible SEAP reporter in LPS-stimulated THP-1 Blue cells. The settings on record: cotinine 100 ng ml^−1 2 h, LPS 1 μg ml^−1 24 h. The class given is cell-based. The method, then:
(§1) FIG. 11. The anti-inflammatory potential of cotinine is a GSK-3β-dependent but NF-κB-independent phenomenon. THP-1 Blue cells are stably transfected with a reporter plasmid expressing secreted embryonic alkaline phosphatase (SEAP) gene under the control of a NF-κB-inducible promoter. […] Cell-free supernatants were harvested by centrifugation and relative expression levels of SEAP (reflecting NF-κB; THP-1 Blue; circles) and IL-10 (THP-1; bars) were determined by spectrophotometric analysis of SEAP activity and ELISA, respectively.
(§2) THP-1 Blue cells are monocyte-like cells that have been stably transfected with a reporter plasmid expressing secreted embryonic alkaline phosphatase (SEAP) gene under the control of a NF-κB-inducible promoter. […] Cell-free supernatants were harvested by centrifugation and relative expression levels of NF-κB and IL-10 were determined by spectrophotometric analysis of SEAP activity and ELISA, respectively.

For series [2], the system named is LPS-stimulated monocytes. The series is described as follows: Pro-inflammatory cytokine release by LPS-stimulated human monocytes (ELISA). It counts as cell-based. The method, then: FIGS. 3A-3E. […] Monocytes were pre-treated with cotinine (1000 ng/ml) for 2 hours then stimulated with purified LPS (0 to 1×10^4 ng/ml) for 24 hours.
FIGS. 6A-6E. […] Cells were pre-treated with nicotine or cotinine (100 and 1000 ng/ml, respectively) for 2 hours then stimulated with purified LPS (0 to 1×10^4 ng/ml) for 24 hours. […] FIG. 6A provides data for IFNγ; FIG. 6B provides data for IL-1β, FIG. 6C provides data for IL-6, FIG. 6D provides data for TNF-α, and FIG. 6E provides data for IL-12/IL-23 p40.
Cotinine inhibited the production and release of multiple pro-inflammatory cytokines by monocytes stimulated with Toll-like receptor (TLR)-agonists in a dose-dependent manner. Cells were pre-treated with cotinine for 2 hours then stimulated with a TLR-agonist (purified LPS, 0 to 1×10^4 ng ml^−1) for 24 hours.
Inflammatory response of cotinine-exposed monocytes to P. gingivalis and LPS: In an initial series of experiments, we determined how physiological doses of nicotine and cotinine influenced levels of TNF secreted by monocytes stimulated with LPS. Human monocytes were pre-treated for 90 minutes with nicotine (1 to 1,000 ng/ml; Sigma-Aldrich, Inc.) or cotinine (1 to 10,000 ng/ml; Sigma-Aldrich, Inc.), then stimulated with purified E. coli K-12 LPS (0 to 10 μg/ml; InVivoGen™, San Diego, Calif.). TNF concentrations in 24 hr supernatants were measured by ELISA (eBioscience, San Diego, Calif.). Subsequently, the concentrations of multiple cytokines in 24 hr supernatants of cotinine pre-incubated (1000 ng/ml) LPS-([…]) stimulated monocytes were measured by ELISA (IFN-γ (PBL Biomed Labs, Piscataway, N.J.), IL-1β, IL-6, TNF, IL-10 (all eBioscience), and IL-12/IL-23 p40 (R&D Systems, Minneapolis, Minn.).
Primary monocytes were pre-treated with nicotine (0-100 ng ml^−1) or cotinine (0-1000 ng ml^−1) then stimulated with the Gram negative periodontal pathogen P. gingivalis (MOI=0-10); purified E. coli K-12 LPS (0-1 μml^−1; InVivoGen™, San Diego, Calif.); or purified P. gingivalis 33277 LPS for 20 h. Primary monocytes were also pre-treated with cotinine (100 ng ml^−1) then stimulated with increasing doses of LPS for 20 h. Cell-free supernatants were harvested by centrifugation and cytokine levels (TNF, IL-6, IL-10, IL-12/IL-23 p40, as appropriate) were determined by ELISA (eBioscience, San Diego, Calif. or R&D Systems, Minneapolis, Minn.).

The subject of the next series is GSK-3β (Ser9). The series is described as follows: Phosphorylated GSK-3β western blot in monocytes. The settings on record: P. gingivalis stimulated monocytes. The class given is cell-based, human. The method, then: (§3) Antibodies were purchased from Cell Signaling, Beverly, Mass. Blots were visualized by enhanced chemiluminescence. The importance of the PI3K-dependent anti-inflammatory pathway in cotinine-induced inflammatory suppression was also established by pharmacological inhibition of PI3K and GSK-3β using the PI3K antagonists LY294002 (25 μM; Calbiochem®, San Diego, Calif.) and wortmannin (100 nM, Calbiochem); and the GSK-3β inhibitor SB216763 (6 μM; Sigma). Activated PI3K produces PIP3 that, in turn, activates downstream signaling components of the PI3K pathway. Therefore, cells were also analyzed for cotinine-induced PI3K activation by, assaying the ability of PI3K to produce PIP3. Levels of PIP3 were determined by ELISA using a competitive inhibition assay (Echelon Bioscience, Salt Lake City, Utah). The specific PI3K inhibitor LY294002 was used at 25 μM and served as a control to block PI3K activity.
In general terms: A western blot detects proteins with antibodies after separation by electrophoresis.

The next series relates to THP-1 cells. The series is described as follows: IL-10 release by LPS-stimulated THP-1 cells (ELISA). It counts as cell-based. The method, then:
as §1, §2
Levels of phosphorylated Akt and phoshorylated GSK-3β following cotinine (0-100 ng ml^−1) and/or E. coli LPS (1 μg ml^−1) treatment were determined by western blot using whole-cell lysates (20 μg) with probing for Akt using a phospho-specific Akt (Ser473) antibody; probing for GSK-3β using a phospho-specific GSK-3β (Ser9; denoted pGSK-3β) antibody; with the blots stripped and re-probed for total p38 to ensure equivalent loading. Antibodies were purchased from Cell Signaling, Beverly, Mass. Blots were visualized by enhanced chemiluminescence. The importance of the PI3K-dependent anti-inflammatory pathway in cotinine-induced inflammatory suppression was also established by pharmacological inhibition of PI3K and GSK-3β using the PI3K antagonists LY294002 (25 μM; Calbiochem®, San Diego, Calif.) and wortmannin (100 nM, Calbiochem); and the GSK-3β inhibitor SB216763 (6 μM; Sigma). […] Therefore, cells were also analyzed for cotinine-induced PI3K activation by, assaying the ability of PI3K to produce PIP3. Levels of PIP3 were determined by ELISA using a competitive inhibition assay (Echelon Bioscience, Salt Lake City, Utah). […]

The subject of another series is Akt (Ser473). The series is described as follows: Phosphorylated Akt western blot in monocytes. It counts as cell-based, human. The settings on record: P. gingivalis stimulated monocytes; PI3K-dependent. The method, then: as §3
For series [3] the following is noted: cited from earlier work.
Series [4] has as its system nicotinic receptors in the brain. The conditions noted are these: cited from earlier work.
The next series has as its system primary monocytes. Description: Viability of primary monocytes.
The subject of series [5] is P. gingivalis-stimulated human monocytes. Description: TNF release by P. gingivalis-stimulated human monocytes (ELISA). The class given is cell-based. The settings on record: for TNF release compared to cells stimulated with P. gingivalis alone: 2 h pre-treatment with nicotine or cotinine, P. gingivalis MOI=10 for 20 h, dose-dependent.
Series [6] deals with striatal dopamine release. The conditions noted are these: cited from earlier work.
The test system of series [7] is THP-1 or THP-1 Blue cells. Description: Viability of THP-1 or THP-1 Blue cells. It counts as cell-based. The settings on record: cotinine 100 ng ml^−1.
The conditions of series [8]: cited from earlier work; for Terminal elimination half-life: in vivo.
For another series, the system named is PI3K. The series is described as follows: PI3K activation in monocytes measured as PIP3 (competitive ELISA). The class given is cell-based, human. The conditions noted are these: LPS 1 μg ml^−1 60 minutes.
[9] abbreviates: cotinine 100 ng ml^−1 2 h, P. gingivalis 33277 LPS 0-10^5 ng ml^−1 24 h.
Where [10] appears, read: cotinine 1000 ng/ml 2 h, LPS 0 to 1×10^4 ng/ml 24 h.

“Also recorded” adds a separate entry of the source.

Protocol for primary monocytes: Monocytes were pre-treated for 2 h with nicotine (triangles) or cotinine (squares) then stimulated with P. gingivalis (MOI=10) for 20 h. Cell-free supernatants were harvested by centrifugation and levels of TNF-α were determined by ELISA.
(A-E) Control monocytes (closed squares) and monocytes pre-treated with cotinine (100 ng ml^−1) for 2 hours (open squares) were stimulated with P. gingivalis 33277 LPS (0-10^5 ng ml^−1) for 24 hours. Cell-free supernatants were harvested by centrifugation and levels of pro-inflammatory cytokines (A-E) and IL-10 (E) were determined by ELISA. Data are the arithmetic mean±s.d. of 3 experiments.

Take `CN1C(=O)CC[C@H]1c1cccnc1` [cotinine, (S)-1-methyl-5-(3-pyridinyl)-2-Pyrrolidinone]: in the series with neutrophils, the “Release of free radicals from neutrophils” value is listed as “suppresses the release of free radicals from neutrophils”. Moreover, the IL-10 release entry in the series with LPS-stimulated monocytes [1] (cotinine 0 to 10,000 ng/ml 2 h, purified LPS 24 h) is “increased the production and release; also recorded: enhanced production; also recorded: increases the release”. In the series on LPS-stimulated monocytes [1] (cotinine 100 ng ml^−1 2 h, P. gingivalis 33277 LPS 24 h), the IL-10 production result is listed as “enhancing production; also recorded: augments IL-10 production”. In addition, the “LPS-induced NF-κB (SEAP activity)” value in the series with NF-κB was “not affected; also recorded: not influenced”. Besides, in the series with LPS-stimulated monocytes [2] (setting [9]), the IL-1β release entry is given as “dramatically suppresses”, the IL-6 release result is reported as “dramatically suppresses”, the “IL-12/IL-23 p40 subunit release” value is listed as “dramatically suppresses” and the TNF-α release entry was “dramatically suppresses”. In the series with LPS-stimulated monocytes [2] (setting [10]), the IFN-γ production result is “suppressed”, the IL-1β production result is “suppressed”, the IL-6 production result is reported as “suppressed” and the “IL-12/IL-23 p40 production” value is listed as “suppressed”. Besides, in the series on LPS-stimulated monocytes [2] (setting [10]), the TNF-α production result is recorded as “suppressed”. For the same compound, in the series with GSK-3β (Ser9), the “Levels of phosphorylated (inactive) GSK3-β” value is “augments”. Moreover, in the series with THP-1 cells (cotinine pre-treatment 2 h, LPS 1 μg ml^−1 24 h), the IL-10 production result is “augment IL-10 production”. Further, the “Levels of phosphorylated (active) Akt” value in the series with Akt (Ser473) was “enhances”. In addition, the “Vasoactivity (heart rate, blood pressure, skin temperature)” value in series [3] (cotinine infusions in humans) is given as “may not be vasoactive”. The Addictiveness entry in series [3] (in vivo) is on record as “non-addictive”. Further, the “Safety of administration to humans” value in [3] (levels as high as 10 times that attained from cigarette smoking) was “safe”. In addition, the “Upregulation of nicotinic receptor expression in the brain” value in [4] is “does not appear to upregulate”. In the series with primary monocytes (cotinine 0 to 10^5 ng ml^−1), the “Viability of primary monocytes compared to P. gingivalis alone” value is “no statistically significant effect”. Also, in the series with primary monocytes (cotinine 100 ng ml^−1), the “Viability of primary monocytes compared to LPS alone” value is “no statistically significant effect”. Further, in series [5], the “TNF release compared to cells stimulated with P. gingivalis alone” value is recorded as “equally as effective as nicotine; also recorded: produce significantly less TNF-α”. In series [6], the Striatal dopamine release entry is reported as “evokes striatal dopamine release”. In series [7], the “Viability of THP-1 or THP-1 Blue cells compared to LPS alone” value is listed as “no statistically significant effect”. For the same compound, the “Systemic concentration relative to nicotine” value in series [8] (humans) is reported as “ten-fold”. In addition, in series [8], the Terminal elimination half-life entry was “sixteen” and the “Mean concentration in smokers” value was 200 to 500 ng/mL. Also, the “Systemic levels in second-hand smokers” value in [8] (second-hand smokers) is 1 to 15 ng/mL. Moreover, in the series with PI3K, the “PIP3 levels (PI3K activation)” value is reported as “potently augments the activation of PI3K; also recorded: increased PIP3 levels”.
Turning to `CN1CCC[C@H]1c1cccnc1` [nicotine, (S)-3-(1-methyl-2-pyrrolidinyl)pyridine, reference compound], the “TNF release compared to cells stimulated with P. gingivalis alone” value in series [5] was “inhibits the release of TNF; also recorded: produce significantly less TNF-α”. Moreover, in series [8], the Terminal elimination half-life entry was “two” and the “Mean concentration in smokers” value was roughly 30 ng/mL. For the same compound, in series [8] (metabolized by the liver), the “Fraction of nicotine converted to cotinine” value is listed as “up to 80%”. For the same compound, the “PIP3 levels (PI3K activation)” value in the series with PI3K is given as “increased PIP3 levels”.
Take `CNC1(C)C2CCC(C2)C1(C)C` (centres unmarked) [mecamylamine]: in [5] (mecamylamine 10 μM pre-incubation), the “Effect of non-selective nAChR antagonist on cotinine-induced inflammatory suppression” value was “nAChR-dependent phenomenon”.
As for `Cn1cc(C2=C(c3ccc(Cl)cc3Cl)C(=O)NC2=O)c2ccccc21` [SB216763], the IL-10 production result in the series with THP-1 cells (GSK-3β inhibitor SB216763 6 μM, LPS) is on record as “enhances IL-10 production in response to LPS”. The “Potency as inducer of IL-10 relative to cotinine” value in the series with THP-1 cells (SB216763 versus cotinine 10 ng ml^−1, p<0.05) was “significantly less potent inducer of IL-10 than cotinine; also recorded: less potent than even low doses of cotinine”.
